Measured values as given in patent US20150274719A1, “AMINO-SUBSTITUTED IMIDAZO[1,2-A]PYRIDINECARBOXAMIDES AND THEIR USE” (BAYER PHARMA AKTIENGESELLSCHAFT, priority 2012, published 2015).

Molecular target: T1, recombinant guanylate cyclase reporter cell line (Rattus norvegicus, UniProt P19686+P20595)
T1 construct: expressed in transfected cells; host or cells: recombinant reporter cell line
T1 sequence (P19686 1-690): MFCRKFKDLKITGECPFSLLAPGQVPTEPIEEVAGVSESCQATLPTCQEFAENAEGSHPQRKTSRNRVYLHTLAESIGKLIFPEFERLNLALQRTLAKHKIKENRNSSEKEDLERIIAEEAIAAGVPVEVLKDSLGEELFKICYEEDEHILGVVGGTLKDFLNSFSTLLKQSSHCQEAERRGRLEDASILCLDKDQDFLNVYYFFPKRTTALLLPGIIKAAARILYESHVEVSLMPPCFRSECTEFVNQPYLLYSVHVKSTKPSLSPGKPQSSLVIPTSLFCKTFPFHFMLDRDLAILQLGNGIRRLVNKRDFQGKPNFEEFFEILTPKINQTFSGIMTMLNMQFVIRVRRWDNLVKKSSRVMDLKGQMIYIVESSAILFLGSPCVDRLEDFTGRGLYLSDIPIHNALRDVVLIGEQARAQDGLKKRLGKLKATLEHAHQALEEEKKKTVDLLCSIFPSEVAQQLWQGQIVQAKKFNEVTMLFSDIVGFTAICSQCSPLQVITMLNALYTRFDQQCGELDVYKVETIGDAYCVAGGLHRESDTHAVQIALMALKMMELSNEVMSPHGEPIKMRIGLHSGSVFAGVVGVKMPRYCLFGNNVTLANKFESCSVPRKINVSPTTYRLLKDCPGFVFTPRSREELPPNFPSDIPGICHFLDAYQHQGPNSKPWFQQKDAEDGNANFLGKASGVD
T1 sequence (P20595 1-619): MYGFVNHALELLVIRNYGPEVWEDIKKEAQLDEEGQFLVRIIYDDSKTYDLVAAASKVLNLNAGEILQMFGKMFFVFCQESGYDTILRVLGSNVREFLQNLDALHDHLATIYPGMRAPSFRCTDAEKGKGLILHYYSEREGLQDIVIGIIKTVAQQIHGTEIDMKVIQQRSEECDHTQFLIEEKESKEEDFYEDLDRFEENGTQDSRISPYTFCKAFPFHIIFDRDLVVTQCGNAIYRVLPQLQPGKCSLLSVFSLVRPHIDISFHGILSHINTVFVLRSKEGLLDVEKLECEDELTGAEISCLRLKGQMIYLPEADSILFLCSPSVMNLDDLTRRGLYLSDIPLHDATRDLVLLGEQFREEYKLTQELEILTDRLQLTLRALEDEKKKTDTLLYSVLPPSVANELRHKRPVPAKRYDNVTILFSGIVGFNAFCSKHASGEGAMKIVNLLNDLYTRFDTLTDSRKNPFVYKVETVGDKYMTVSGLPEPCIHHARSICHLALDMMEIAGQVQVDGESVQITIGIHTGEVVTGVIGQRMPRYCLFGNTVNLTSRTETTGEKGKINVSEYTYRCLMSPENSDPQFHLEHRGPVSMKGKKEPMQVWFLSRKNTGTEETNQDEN
Assay: Action on recombinant guanylate cyclase reporter cell line
Assay type: cell-based
Conditions: in some cases mean values from individual determinations
Procedure: B-2. Action on Recombinant Guanylate Cyclase Reporter Cell Line
The cellular action of the compounds according to the invention is determined on a recombinant guanylate cyclase reporter cell line, as described in F. Wunder et al., Anal. Biochem. 339, 104-112 (2005).
Representative MEC values (MEC=minimal effective concentration) for the compounds according to the invention are shown in the following table (in some cases as mean values obtained from individual determinations): […]

Row | Structure (SMILES) | MEC (minimal effective concentration)
1 | Cc1nc2c(OCc3c(F)cccc3F)cccn2c1C(=O)NCC(N)C(F)(F)C(F)F (racemic) [Example 230, rac-N-(2-Amino-3,3,4,4-tetrafluorobutyl)-8-[(2,6-difluorobenzyl)oxy]-2-methylimidazo[1,2-a]-pyridine-3-carboxamide] | 1.00 µM
2 | Cc1cc(OCc2c(F)cccc2F)c2nc(C)c(C(=O)NCC3CCc4ccccc4N3)n2c1 (racemic) [Example 235, rac-8-[(2,6-Difluorobenzyl)oxy]-2,6-dimethyl-N-(1,2,3,4-tetrahydroquinolin-2-ylmethyl)imidazo-[1,2-a]pyridine-3-carboxamide] | 0.30 µM
3 | Cc1nc2c(OCc3c(F)cccc3F)cc(Cl)cn2c1C(=O)NCC(C)(N)C(F)(F)F (racemic) [Example 236, rac-N-(2-Amino-3,3,3-trifluoro-2-methylpropyl)-6-chloro-8-[(2,6-difluorobenzyl)oxy]-2-methyl-imidazo[1,2-a]pyridine-3-carboxamide] | 0.30 µM
4 | Cc1cc(OCCC(C)C)c2nc(C)c(C(=O)NCC(C)(N)CC(C)C)n2c1 (racemic) [Example 249, rac-N-(2-Amino-2,4-dimethylpentyl)-2,6-dimethyl-8-(3-methylbutoxyl)imidazo[1,2-a]pyridine-3-carboxamide] | 1.00 µM
5 | Cc1nc2c(OCc3c(F)cccc3F)cccn2c1C(=O)NCC1CCc2ccccc2N1 (racemic) [Example 250, rac-8-[(2,6-Difluorobenzyl)oxy]-2-methyl-N-(1,2,3,4-tetrahydroquinolin-2-ylmethyl)imidazo[1,2-a]pyridine-3-carboxamide] | 1.00 µM
6 | CCC(C)(N)CNC(=O)c1c(C)nc2c(OCc3c(F)cccc3F)cccn12 (racemic) [Example 254, rac-N-(2-Amino-2-methylbutyl)-8-[(2,6-difluorobenzyl)oxy]-2-methylimidazo[1,2-a]pyridine-3-carboxamide] | 0.30 µM
7 | Cc1cc(OCCC(C(F)(F)F)C(F)(F)F)c2nc(C)c(C(=O)NCC(C)(N)CC(C)C)n2c1 (racemic) [Example 258, rac-N-(2-Amino-2,4-dimethylpentyl)-2,6-dimethyl-8-[4,4,4-trifluoro-3-(trifluoromethyl)butoxy]-imidazo[1,2-a]pyridine-3-carboxamide] | 1.00 µM
8 | Cc1nc2c(OCc3c(F)cccc3F)cccn2c1C(=O)NCC(C)(N)COCc1ccccc1 (racemic) [Example 263, rac-N-[2-amino-3-(benzyloxy)-2-methylpropyl]-8-[(2,6-difluorobenzyl)oxy]-2-methylimidazo[1,2-a]pyridine-3-carboxamide] | 1.00 µM
9 | Cc1nc2c(OCc3c(F)cccc3F)cccn2c1C(=O)NCC(C)(N)CCOCc1ccccc1 (racemic) [Example 264, rac-N-[2-amino-4-(benzyloxy)-2-methylbutyl]-8-[(2,6-difluorobenzyl)oxy]-2-methylimidazo[1,2-a]pyridine-3-carboxamide] | 0.03 µM
10 | Cc1cc(OCc2c(F)cccc2F)c2nc(C)c(C(=O)NCC(C)(N)COCc3ccccc3)n2c1 (racemic) [Example 265, rac-N-[2-amino-3-(benzyloxy)-2-methylpropyl]-8-[(2,6-difluorobenzyl)oxy]-2,6-dimethylimidazo[1,2-a]pyridine-3-carboxamide] | 0.30 µM
11 | Cc1nc2c(OCc3c(F)cccc3F)cccn2c1C(=O)NCC(C)(N)CO (racemic) [Example 273, rac-N-(2-Amino-3-hydroxy-2-methylpropyl)-8-[(2,6-difluorobenzyl)oxy]-2-methylimidazo[1,2-a]-pyridine-3-carboxamide] | 1.00 µM
12 | CCCC(C)(N)CNC(=O)c1c(C)nc2c(OCc3c(F)cccc3F)c(F)ccn12 (racemic) [Example 277, rac-N-(2-Amino-2-methylpentyl)-8-[(2,6-difluorobenzyl)oxy]-7-fluoro-2-methylimidazo[1,2-a]-pyridine-3-carboxamide] | 1.00 µM
13 | Cc1cc(OCc2c(F)cccc2F)c2nc(C)c(C(=O)NC3CCNCC3(F)F)n2c1 (racemic) [Example 299, rac-8-[(2,6-difluorobenzyl)oxy]-N-(3,3-difluoropiperidin-4-yl)-2,6-dimethylimidazo[1,2-a]pyridine-3-carboxamide] | 0.10 µM

Next, values leading:

Row | MEC (minimal effective concentration) | Structure (SMILES)
14 | 0.30 µM | Cc1nc2c(OCc3c(F)cccc3F)cc(Cl)cn2c1C(=O)NCC(C)(N)CC(C)C (racemic) [Example 225, rac-N-(2-Amino-2,4-dimethylpentyl)-6-chloro-8-[(2,6-difluorobenzyl)oxy]-2-methylimidazo[1,2-a]pyridine-3-carboxamide]
15 | 0.10 µM | CCCC(C)(N)CNC(=O)c1c(C)nc2c(OCc3c(F)cccc3F)cc(C)cn12 (racemic) [Example 232, rac-N-(2-Amino-2-methylpentyl)-8-[(2,6-difluorobenzyl)oxy]-2,6-dimethylimidazo[1,2-a]pyridine-3-carboxamide]
16 | 0.30 µM | Cc1cc(OCc2c(F)cccc2F)c2nc(C)c(C(=O)NCC(C)(N)C(F)(F)F)n2c1 (racemic) [Example 239, rac-N-(2-Amino-3,3,3-trifluoro-2-methylpropyl)-8-[(2,6-difluorobenzyl)oxy]-2,6-dimethyl-imidazo[1,2-a]pyridine-3-carboxamide]
17 | 0.30 µM | CCCC(C)(N)CNC(=O)c1c(C)nc2c(OCc3c(F)cccc3F)cc(Cl)cn12 (racemic) [Example 244, rac-N-(2-Amino-2-methylpentyl)-6-chloro-8-[(2,6-difluorobenzyl)oxy]-2-methylimidazo[1,2-a]-pyridine-3-carboxamide]
18 | 0.03 µM | Cc1cc(OCc2c(F)cccc2F)c2nc(C)c(C(=O)NCC(C)(N)C3CC3)n2c1 (racemic) [Example 259, rac-N-(2-Amino-2-cyclopropylpropyl)-8-[(2,6-difluorobenzyl)oxy]-2,6-dimethylimidazo[1,2-a]-pyridine-3-carboxamide]
19 | 0.10 µM | Cc1cc(OCc2c(F)cccc2F)c2nc(C)c(C(=O)NCC(C)(N)CCOCc3ccccc3)n2c1 (racemic) [Example 262, rac-N-[2-Amino-4-(benzyloxy)-2-methylbutyl]-8-[(2,6-difluorobenzyl)oxy]-2,6-dimethylimidazo-[1,2-a]pyridine-3-carboxamide]
20 | 1.00 µM | Cc1cc(OCc2c(F)cccc2F)c2nc(C)c(C(=O)NCC(C)(N)CCO)n2c1 (racemic) [Example 270, rac-N-(2-Amino-4-hydroxy-2-methylbutyl)-8-[(2,6-difluorobenzyl)oxy]-2,6-dimethylimidazo[1,2-a]pyridine-3-carboxamide]
21 | 0.03 µM | CCCC(C)(N)CNC(=O)c1c(C)nc2c(OCc3c(F)ccc(F)c3F)cc(C)cn12 (racemic) [Example 293, rac-N-(2-amino-2-methylpentyl)-2,6-dimethyl-8-[(2,3,6-trifluorobenzyl)oxy]imidazo[1,2-a]pyridine-3-carboxamide]
22 | 0.10 µM | Cc1cc(OCc2c(F)cccc2F)c2nc(C)c(C(=O)NCC(C)(N)Cc3ccc(F)cc3)n2c1 (racemic) [Example 296, rac-N-[2-amino-3-(4-fluorophenyl)-2-methylpropyl]-8-[(2,6-difluorobenzyl)oxy]-2,6-dimethylimidazo[1,2-a]pyridine-3-carboxamide]
23 | 0.10 µM | Cc1cc(OCc2c(F)cccc2F)c2nc(C)c(C(=O)NCC(C)(N)Cc3ccccn3)n2c1 (racemic) [Example 297, rac-N-[2-amino-2-methyl-3-(pyridin-2-yl)propyl]-8-[(2,6-difluorobenzyl)oxy]-2,6-dimethylimidazo[1,2-a]pyridine-3-carboxamide]
